PMC9959269, “Pyrrolyl and Indolyl α-γ-Diketo Acid Derivatives Acting as Selective Inhibitors of Human Carbonic Anhydrases IX and XII” (Pharmaceuticals, 2023)
Several values for one entry are separate records, joined by “and”; a condition that tells them apart may be missing. Equal values may be shown once.

Key:
hCA IX = target: T1, hCA IX (Homo sapiens, UniProt Q16790); assay: Stopped flow CO2 hydrase assay, hCA IX inhibition; format: biochemical; details: for Selectivity for CA IX and XII over hCAs I and II: from Ki values; for Ki: stopped flow technique, means ± SEM of 3 different assays, recombinant hCA IX, read-out: Ki CA IX
T1 construct: made in house
Description: (§1) An Applied Photophysics stopped-flow instrument has been used for assaying the CA catalyzed CO2 hydration activity. Phenol red (at a concentration of 0.2 mM) has been used as an indicator, working at the absorbance maximum of 557 nm, with 20 mM Hepes (pH 7.5) as buffer and 20 mM Na2SO4 (for maintaining constant the ionic strength), following the initial rates of the CA-catalyzed CO2 hydration reaction for a period of 10−100 s. The CO2 concentrations ranged from 1.7 to 17 mM for the determination of the kinetic parameters and inhibition constants. […] The uncatalyzed rates were determined in the same manner and subtracted from the total observed rates. Stock solutions of inhibitor (0.1 mM) were prepared in distilled−deionized water and dilutions up to 0.01 nM were performed thereafter with the assay buffer. Inhibitor and enzyme solutions were preincubated together for 15 min at room temperature before assay to allow for the formation of the E−I complex. The inhibition constants were obtained by nonlinear least-squares methods using PRISM 3 and the Cheng−Prusoff equation, as reported earlier, and they represent the mean from at least three different determinations. […] All hCA isoforms were recombinant ones obtained in-house as reported earlier.

[1] = tested on: triple negative breast cancer MDA-MB231; assay: In vitro proliferation assay (sulforhodamine B), MDA-MB231; format: cell-based; details: Homo sapiens, MDA-MB-231, ± SD
Description: (§2) The effects of selected compounds were also examined on the proliferation of four cell lines from different human solid tumors overexpressing hCA isoforms IX and XII: triple negative breast cancer MDA-MB231, colon carcinoma HT-29, tongue squamous carcinoma SCC-15 and pharynx squamous carcinoma FaDu. The cell lines were treated with 5, 10, 20, 50, 100 µM of each single compound for 24 and 48 h. In parallel, the proliferation assay was performed also on HaCaT, a human non-transformed keratinocyte cell line, with each compound used at the same concentrations and times already indicated. The median values from three different proliferation assays for each compound and for each cell line were calculated and their significance was evaluated.
(§3) The following human tumor cell lines were utilized in the present study: triple-negative breast cancer MDA-MB231, colon carcinoma HT-29, tongue squamous cell carcinoma SCC-15 and pharynx squamous cell carcinoma FaDu. In addition, a spontaneously transformed keratinocyte cell line from human skin HaCaT was used as control of non-transformed cells. All cell lines were purchased from the American Type Culture Collection (Manassas, VA, USA).
(§4) The cell lines were grown in RPMI 1640 medium supplemented with 10% fetal calf serum (FCS), 2 mM glutamine and 50 U/mL penicillin–streptomycin.
(§5) All compounds were solubilized in dimethylsulfoxide (DMSO) (Sigma) for a 10 mM stock solution and utilized to final concentrations from 5 to 100 μM for 24 and 48 h. Control cells were treated with equivalent amounts of DMSO in every experiment.
(§6) To determine cytotoxicity, a sulforhodamine B colorimetric assay was performed: 5 × 10^3 cells were plated on 96-well plates, grown for 24 h and treated with different concentrations of each compound for 24 and 48 h. Cells were then fixed with 50% trichloroacetic acid for 1 h at 4 °C and stained for 30 min (min) at room temperature (RT) with 0.4% sulforhodamine B in 1% acetic acid. Excess dye was removed by washing four times with 1% acetic acid. Protein-bound dye was dissolved in 10 mM Tris pH 10 and optical density was determined at 510 nm using a microplate reader.

hCA I = target: T2, hCA I (Homo sapiens, UniProt P00915); assay: Stopped flow CO2 hydrase assay, hCA I inhibition; format: biochemical; details: stopped flow technique, means ± SEM of 3 different assays, recombinant hCA I; for Ki: read-out: Ki CA I
T2 construct: made in house
Description: as §1

hCA II = target: T3, hCA II (Homo sapiens, UniProt P00918); assay: Stopped flow CO2 hydrase assay, hCA II inhibition; format: biochemical; details: stopped flow technique; means ± SEM of 3 different assays; recombinant hCA II; read-out: Ki CA II
T3 construct: made in house
Description: as §1

colon carcinoma HT-29 = assay: In vitro proliferation assay (sulforhodamine B), HT-29; format: cell-based; details: Homo sapiens, ± SD
Description: as §2, §3, §4, §5, §6

[2] = tested on: tongue squamous carcinoma SCC-15; assay: In vitro proliferation assay (sulforhodamine B), SCC-15; format: cell-based; details: Homo sapiens, ± SD
Description: as §2, §3, §4, §5, §6

hCA XII = target: T4, hCA XII (Homo sapiens, UniProt O43570); assay: Stopped flow CO2 hydrase assay, hCA XII inhibition; format: biochemical; details: for Ki: stopped flow technique, means ± SEM of 3 different assays, recombinant hCA XII, read-out: Ki CA XII
T4 construct: made in house
Description: as §1

[3] = tested on: MDA-MB231, HT-29, SCC-15 and FaDu tumor cell lines; assay: In vitro proliferation assay, four tumor cell lines taken together; format: cell-based, human; details: for Antiproliferative activity (in words): four tumor cell lines, 5-100 µM, 24 and 48 h; for Lowest concentration determining a significant decrease in alive cells: tumor cell lines, 24 h
Description: as §2, §3, §4, §5, §6

[4] = tested on: pharynx squamous carcinoma FaDu; assay: In vitro proliferation assay (sulforhodamine B), FaDu; format: cell-based; details: Homo sapiens, ± SD
Description: as §2, §3, §4, §5, §6

HaCaT = assay: In vitro proliferation assay (sulforhodamine B), HaCaT non-transformed keratinocytes; format: cell-based, human; details: 24 and 48 h, no effect except at a very high concentration, above 100 µM
Description: as §2
The following human tumor cell lines were utilized in the present study: triple-negative breast cancer MDA-MB231, colon carcinoma HT-29, tongue squamous cell carcinoma SCC-15 and pharynx squamous cell carcinoma FaDu. […]
To determine cytotoxicity, a sulforhodamine B colorimetric assay was performed: 5 × 10^3 cells were plated on 96-well plates, grown for 24 h and treated with different concentrations of each compound for 24 and 48 h. […] Protein-bound dye was dissolved in 10 mM Tris pH 10 and optical density was determined at 510 nm using a microplate reader.

T4 sequence (O43570 25-354): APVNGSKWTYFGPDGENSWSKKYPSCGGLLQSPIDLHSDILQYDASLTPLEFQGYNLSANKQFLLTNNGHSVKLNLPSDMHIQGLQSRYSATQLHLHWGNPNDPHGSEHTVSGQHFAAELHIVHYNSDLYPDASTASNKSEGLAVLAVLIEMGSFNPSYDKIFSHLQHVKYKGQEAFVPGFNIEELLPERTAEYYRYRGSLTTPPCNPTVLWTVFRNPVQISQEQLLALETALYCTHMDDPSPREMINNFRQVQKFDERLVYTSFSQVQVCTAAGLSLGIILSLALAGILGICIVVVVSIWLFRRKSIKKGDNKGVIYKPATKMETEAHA
T2 sequence (P00915 whole entry): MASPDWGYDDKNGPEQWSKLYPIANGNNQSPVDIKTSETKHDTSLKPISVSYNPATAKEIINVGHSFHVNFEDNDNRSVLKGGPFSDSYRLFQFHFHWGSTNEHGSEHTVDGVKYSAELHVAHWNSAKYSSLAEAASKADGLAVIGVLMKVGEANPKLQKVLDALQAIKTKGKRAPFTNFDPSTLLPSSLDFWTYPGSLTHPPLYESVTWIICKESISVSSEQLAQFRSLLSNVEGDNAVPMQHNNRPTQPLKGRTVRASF

Structure (SMILES)	Selectivity for CA IX and XII over hCAs I and II (hCA IX)	Ki (hCA IX)	EC50 ([1]; 24 h treatment)	EC50 ([1]; 48 h treatment)	Ki (hCA I)	Ki (hCA II)	EC50 (colon carcinoma HT-29; 24 h treatment)	EC50 (colon carcinoma HT-29; 48 h treatment)	EC50 ([2]; 24 h treatment)	EC50 ([2]; 48 h treatment)	Ki (hCA XII)	EC50 ([4]; 24 h treatment)	EC50 ([4]; 48 h treatment)	Ki CA I (hCA I)	Increase in activity against CA IX relative to diketobutanoic analogue 3a (hCA IX; ratio of Ki values, 5 vs 3a)	Increase in activity against CA XII relative to diketobutanoic analogue 3a (hCA XII; ratio of Ki values, 5 vs 3a)	Antiproliferative activity (in words) [3]	Effect on proliferation of HaCaT cells (HaCaT)	Lowest concentration determining a significant decrease in alive cells [3]
Cc1ccc(Cn2cccc2/C=C/C(=O)/C=C(\O)C(=O)O)cc1 [Compound 1c]	two orders of magnitude selective	0.8 µM and 0.82 µM	85 ± 9.1 µM	73 ± 5.5 µM	79 ± 3.9 µM	44.4 ± 2.6 µM	115 ± 10.8 µM	48 ± 4.1 µM	96 ± 8.5 µM	53 ± 5.9 µM	0.9 ± 0.07 µM	59 ± 4.5 µM	17 ± 0.9 µM	–	–	–	significant antiproliferative activity	–	–
CCOC(=O)/C(O)=C/C(=O)/C=C/c1cccn1Cc1ccc(C)cc1 [Compound 2c]	–	90.8 ± 4.6 µM	–	–	> 100 µM	> 100 µM	–	–	–	–	89.3 ± 5.3 µM	–	–	–	–	–	–	–	–
O=C(/C=C(\O)C(=O)O)/C=C/c1cccn1Cc1ccccc1F [Compound 1b]	–	2.5 ± 0.1 µM	–	–	89.6 ± 4.8 µM	14 ± 0.8 µM	92 ± 9.9 µM	75 ± 8.2 µM	–	–	2.2 ± 0.1 µM	98 ± 8.6 µM	90 ± 9.3 µM	–	–	–	low efficacy	–	–
O=C(/C=C(\O)C(=O)O)/C=C/c1cn(Cc2ccc(F)cc2)cc1-c1ccccc1 [Compound 5]	two orders of magnitude selective	0.3 µM and 0.32 µM	120 ± 15.7 µM	105 ± 13.2 µM	> 100 µM	62.5 ± 3.6 µM	98 ± 11 µM	21 ± 1.6 µM	102 ± 9.7 µM	58 ± 6.2 µM	0.2 µM and 0.24 µM	103 ± 11.4 µM	23 ± 2.8 µM	inactive	more than 4 times	about 1.5 times	significant antiproliferative activity	–	–
CCOC(=O)/C(O)=C/C(=O)/C=C/c1cccn1Cc1ccccc1F [Compound 2b]	–	23.7 ± 1.6 µM	–	–	> 100 µM	> 100 µM	–	–	–	–	80.5 ± 6.1 µM	–	–	–	–	–	–	–	–
CCOC(=O)/C(O)=C/C(=O)/C=C/c1cccn1Cc1ccc(F)cc1 [Compound 2a]	–	90.1 ± 4.7 µM	–	–	> 100 µM	> 100 µM	–	–	–	–	83.6 ± 5.4 µM	–	–	–	–	–	–	–	–
CCOC(=O)/C(O)=C/C(=O)/C=C/c1cn(Cc2ccc(F)cc2)cc1-c1ccccc1 [Compound 6]	–	43.1 ± 2.5 µM	–	–	> 100 µM	> 100 µM	–	–	–	–	89 ± 6.1 µM	–	–	–	–	–	–	–	–
O=C(/C=C(\O)C(=O)O)/C=C/c1cccn1Cc1ccc(F)cc1 [Compound 1a]	–	2 ± 0.1 µM	–	–	81.9 ± 6 µM	14.6 ± 0.9 µM	–	–	–	–	1 ± 0.1 µM	–	–	–	–	–	–	–	–
O=C(/C=C(\O)C(=O)O)/C=C/c1cc(C(=O)c2ccccc2)c[nH]1 [Compound 1d]	–	1.4 ± 0.1 µM	–	–	72.5 ± 5.1 µM	38.7 ± 2 µM	–	–	–	–	1.1 ± 0.1 µM	–	–	–	–	–	–	–	–
CCOC(=O)/C(O)=C/C(=O)/C=C/c1cn(Cc2ccc(OC)cc2)c2ccccc12 [Compound 8]	–	80.1 ± 5.3 µM	23 ± 1.6 µM	17 ± 0.9 µM	> 100 µM	> 100 µM	75 ± 8.8 µM	44 ± 2.3 µM	44 ± 4.1 µM	21 ± 1.9 µM	92 ± 6 µM	41 ± 3.3 µM	18 ± 0.7 µM	–	–	–	–	no significant effect	10 µM
COc1ccc(Cn2cc(/C=C/C(=O)/C=C(\O)C(=O)O)c3ccccc32)cc1 [Compound 7]	–	1.1 ± 0.1 µM	21 ± 1.8 µM	12 ± 1.1 µM	91.7 ± 7.5 µM	36.5 ± 1.9 µM	47 ± 5 µM	30 ± 2.8 µM	48 ± 3.9 µM	17 ± 0.8 µM	0.8 µM and 0.83 µM	51 ± 4.7 µM	22 ± 1.2 µM	–	–	–	–	no significant effect	10 µM

More lines, main results first:

Selectivity for CA IX and XII over hCAs I and II (hCA IX)	Ki (hCA IX)	EC50 ([1]; 24 h treatment)	EC50 ([1]; 48 h treatment)	Ki (hCA I)	Ki (hCA II)	EC50 (colon carcinoma HT-29; 24 h treatment)	EC50 (colon carcinoma HT-29; 48 h treatment)	EC50 ([2]; 24 h treatment)	EC50 ([2]; 48 h treatment)	Ki (hCA XII)	EC50 ([4]; 24 h treatment)	EC50 ([4]; 48 h treatment)	Ki CA I (hCA I)	Increase in activity against CA IX relative to diketobutanoic analogue 3a (hCA IX; ratio of Ki values, 5 vs 3a)	Increase in activity against CA XII relative to diketobutanoic analogue 3a (hCA XII; ratio of Ki values, 5 vs 3a)	Structure (SMILES)	Antiproliferative activity (in words) [3]	Effect on proliferation of HaCaT cells (HaCaT)	Lowest concentration determining a significant decrease in alive cells [3]
–	> 100 µM	–	–	> 100 µM	> 100 µM	–	–	–	–	71.5 ± 4.3 µM	–	–	–	–	–	CCOC(=O)/C(O)=C/C(=O)c1ccn(Cc2ccc(F)cc2)c1 [Compound 4b]	–	–	–
–	1.4 ± 0.1 µM	–	–	> 100 µM	77.6 ± 4.5 µM	–	–	–	–	0.3 µM and 0.33 µM	–	–	inactive	–	–	O=C(O)/C(O)=C/C(=O)c1cn(Cc2ccc(F)cc2)cc1-c1ccccc1 [Compound 3a]	–	–	–
–	57.3 ± 2.8 µM	–	–	> 100 µM	> 100 µM	–	–	–	–	89.2 ± 5.2 µM	–	–	–	–	–	CCOC(=O)/C(O)=C/C(=O)c1cn(Cc2ccc(F)cc2)cc1-c1ccccc1 [Compound 4a]	–	–	–
–	18.4 ± 1.2 µM	–	–	50.9 ± 4.1 µM	54.7 ± 2.9 µM	–	–	–	–	7.9 ± 0.6 µM	–	–	–	–	–	O=C(O)/C(O)=C/C(=O)c1ccn(Cc2ccc(F)cc2)c1 [Compound 3b]	–	–	–
